This is an account of results in patent US20050118226A1, “Methods for treating ACAT-related diseases” (priority 2003, published 2005).

For one test, the system named is Tg2576 mice. As to conditions: 12 month-old female Tg2576 mice, 3 weeks; cited from earlier work.
Test [1] deals with T1, purified recombinant human BACE1 (Homo sapiens, UniProt P56817).
T1 construct: purchased R&D systems
Briefly: In vitro fluorometric BACE1 activity assay. The format is biochemical. Particulars: increasing amounts of compound, 2 hours. The method, then: A fluorometric β-secretase activity kit was used for detecting BACE1 activity in vitro. Reaction was done according to the manufacturer's instructions with slight modifications. Briefly, 1 μg of purified recombinant human BACE1 (R&D systems) was resuspended in 10 μl of 1× cell extraction buffer (R&D systems) and incubated with EDANS/DABCYL-[…] substrate peptide in the absence or presence of indicated account of CP-113,818 for 2 hours. Released EDANS fluorescence was measured by a fluorescent plate reader (Analyst AD, LJL Biosystems). As a negative control, a specific β-secretase inhibitor, GL-189 (Calbiochem) was added to one of the samples with the indicated concentration.

The test system of another test is PSAPP mice. Particulars: 250 mg/kg/day orally, 5 weeks; cited from earlier work.
A further test relates to CHO cells. Particulars: 4 μM; cited from earlier work.
The subject of another test is γ-secretase. Briefly: In vitro generation of APP intracellular domain (AICD), γ-secretase activity assay on CHO cell membrane fractions. Format: biochemical, Chinese hamster. Particulars: CHO cell (overexpressing APP) membrane fractions, increasing amounts of compound. The procedure: Membrane preparation and in vitro generation of AICD were performed as described (Gu et al., 2001; Kim et al., 2002). P2 membrane fractions were prepared from CHO cells overexpressing wild type APP and resuspended in Buffer H (20 mM HEPES, 150 mM NaCl, 10% glycerol, 5 mM EDTA, pH 7.4) with protease inhibitors. In vitro cleavage experiments were performed by incubating the membrane fractions at 0° C. or 37° C. for 1 hour with the indicated amounts of CP-113,818. As a negative control, a specific γ-secretase inhibitor, L-685,458, was added to one of the samples.

Each structure is given as a SMILES string. Where a SMILES comes first, the peptide text is derived from it. [ ]: non-standard residue; d: D form. Sta = CC(C)C[C@H](N)[C@@H](O)CC(=O)O

T1 sequence (P56817 46-501): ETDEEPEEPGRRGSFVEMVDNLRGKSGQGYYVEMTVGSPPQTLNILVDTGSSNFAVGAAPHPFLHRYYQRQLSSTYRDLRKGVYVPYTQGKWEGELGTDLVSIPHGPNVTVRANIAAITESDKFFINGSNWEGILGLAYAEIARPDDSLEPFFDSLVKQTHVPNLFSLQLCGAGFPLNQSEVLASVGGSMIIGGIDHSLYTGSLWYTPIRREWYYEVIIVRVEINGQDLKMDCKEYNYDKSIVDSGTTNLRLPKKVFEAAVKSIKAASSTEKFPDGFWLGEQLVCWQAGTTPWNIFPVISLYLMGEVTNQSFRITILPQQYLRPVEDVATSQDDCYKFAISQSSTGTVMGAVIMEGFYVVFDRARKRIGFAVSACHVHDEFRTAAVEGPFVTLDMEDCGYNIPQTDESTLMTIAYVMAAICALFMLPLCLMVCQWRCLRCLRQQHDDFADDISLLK

`CC[C@H](C)C(=O)O[C@H]1C[C@@H](C)C=C2C=C[C@H](C)[C@H](CC[C@@H]3C[C@@H](O)CC(=O)O3)[C@H]21` [lovastatin]: the “Aβ pathology in female animals” value in the test on Tg2576 mice was “increasing Aβ pathology”.
Turning to `CC(C)C[C@H](NC(=O)[C@H](CC(N)=O)NC(=O)[C@@H](NC(=O)[C@@H](N)CCC(=O)O)C(C)C)[C@@H](O)CC(=O)N[C@H](C(=O)N[C@@H](C)C(=O)N[C@@H](CCC(=O)O)C(=O)N[C@@H](Cc1ccccc1)C(N)=O)C(C)C` [GL-189] (H-EVN[Sta]VAEF-NH2), the “effect on BACE1 activity in vitro” value in test [1] is “significantly reduces BACE1 activity”.
On to `O=C(O)c1ccc(CCN2CCN(C/C=C/c3ccc(Cl)cc3)CC2)cc1` [BM15.766], for which, in the test on PSAPP mice, the “reduction of amyloid load” value is 53%, the “reduction of formic acid-extracted Aβ40” value is 58% and the “reduction of formic acid-extracted Aβ42” value was 48%.
Take `CC(C)c1cc(C(C)C)c(CC(=O)NS(=O)(=O)Oc2c(C(C)C)cccc2C(C)C)c(C(C)C)c1` [avasimibe]: the “inhibition of Aβ generation” value in the test with CHO cells is recorded as “approximately 60%”.
As for `CC(C)C[C@H](NC(=O)[C@H](Cc1ccccc1)C[C@@H](O)[C@H](Cc1ccccc1)NC(=O)OC(C)(C)C)C(=O)N[C@@H](Cc1ccccc1)C(N)=O` [L-685,458], in the test with γ-secretase, the “effect on γ-secretase activity (AICD generation) in vitro” value is “inhibits APP intracellular domain (AICD) generation”.
